Source: patent US7622551B2, “Leukocyte stimulating peptides” (POSCO, priority 2004, dated 2009)
Where no end group is shown, it is not given here.

Assays:
[1] = test system: human neutrophils; assay: Chemotaxis assay (modified Boyden chamber), neutrophils; type: cell-based; details: concentrations less than 10 μM
Protocol: (§1) FIGS. 6A and 6B show chemotactic effect of peptides. Assays were performed using a modified Boyden chamber assay, as described in the Examples. Isolated human neutrophils (A) or monocytes (B) (1×10^6 cells/ml in serum free RPMI) were added to the upper wells of a 96-well chemotaxis chamber and migration across a 3 μm pore size (5 μm for monocytes) polycarbonate membrane was assessed after 2 hrs incubation at 37° C. The numbers of migrated cells were determined by counting them in a high power field (400×). Results are presented as means±S.E. of three independent experiments each performed in duplicate.
Chemotaxis assays were performed using multiwell chambers (Neuroprobe Inc., Gaithersburg, Md.) (Bae et al. Blood. 2001. 97: 2854-2862). Briefly, prepared human monocytes were suspended in RPMI at a concentration of 1×10^6 cells/ml, and 25 μl of the suspension was then placed onto the upper well of a chamber separated by a 5 μm polyhydrocarbon filter (3 μm pores size not polyvinylpyrrolidone coated, as is needed for neutrophils) from peptides or N-formyl-methionyl-leucyl-phenylalanine (fMLF) in the lower well. […] Stained cells were counted in five randomly chosen high power fields (HPF) (400×) (Bae et al. Blood. 2001. 97: 2854-2862).

[2] = test system: human monocytes; assay: Chemotaxis assay (modified Boyden chamber), monocytes; type: cell-based; details: FIG. 6B; control peptide at concentrations less than 10 μM
Protocol: as §1
Chemotaxis assays were performed using multiwell chambers (Neuroprobe Inc., Gaithersburg, Md.) (Bae et al. Blood. 2001. 97: 2854-2862). Briefly, prepared human monocytes were suspended in RPMI at a concentration of 1×10^6 cells/ml, and 25 μl of the suspension was then placed onto the upper well of a chamber separated by a 5 μm polyhydrocarbon filter (3 μm pores size not polyvinylpyrrolidone coated, as is needed for neutrophils) from peptides or N-formyl-methionyl-leucyl-phenylalanine (fMLF) in the lower well. After incubation for 2 hours (90 minutes for neutrophils) at 37° C., non-migrated cells were removed by scraping, and cells that migrated across the filter were dehydrated, fixed, and stained with hematoxylin (Sigma, St. Louis, Mo.). Stained cells were counted in five randomly chosen high power fields (HPF) (400×) (Bae et al. Blood. 2001. 97: 2854-2862).

[3] = biological target: T1, FPRL1 (Homo sapiens, UniProt P25090); assay: [Ca2+]i increase in FPRL1-expressing RBL-2H3 cells; type: cell-based; details: 10 μM of each peptide (FIG. 7)
T1 construct: expressed in transfected cells; host or cells: RBL-2H3
T1 sequence (P25090 1-351): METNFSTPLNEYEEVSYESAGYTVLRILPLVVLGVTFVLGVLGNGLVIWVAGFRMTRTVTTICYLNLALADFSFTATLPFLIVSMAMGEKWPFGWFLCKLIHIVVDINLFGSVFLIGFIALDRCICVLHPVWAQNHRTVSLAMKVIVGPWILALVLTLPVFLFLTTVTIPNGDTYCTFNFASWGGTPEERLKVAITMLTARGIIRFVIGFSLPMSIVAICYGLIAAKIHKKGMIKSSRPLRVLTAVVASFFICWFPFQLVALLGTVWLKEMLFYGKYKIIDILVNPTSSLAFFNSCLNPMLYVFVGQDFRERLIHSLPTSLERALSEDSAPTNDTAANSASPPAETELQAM
Protocol: (§2) U937 (human histiocytic lymphoma cells), HL60 (human promyelocytic leukemia cells), Raw 264.7 (mouse macrophage), Jurkat (human acute T cell leukemia), PC12 (rat adrenal pheochromocytoma cells), 3Y1 (Rat embryonic fibroblasts), 3T3L1 (preadipocytes), and NCI-H292 (human mucoepidermoid pulmonary carcinoma cells) were obtained from the American Type Culture Collection (Rockville, Md.) and maintained as recommended. FPR- or FPRL1 expressing RBL-2H3 cells were cultured as described previously (He et al. J. Immunol. 2000. 165: 4598-4605). Cells were maintained at about 1×10^6 cells/ml under standard incubator conditions (humidified atmosphere, 95% air, 5% CO2, at 37° C.). HL60 cells were induced to differentiate into the granulocyte phenotype by adding dimethylsulfoxide (DMSO) (final concentration 1.25%, v/v) for 4 days to the culture medium, as described previously (Itoh et al. Blood. 1998. 92: 1432-1441).
(§3) The level of [Ca^2+]i was determined using Grynkiewicz's method using fura-2/AM (Grynkiewicz et al. J. Biol. Chem. 1985. 260: 3440-3550). Briefly, prepared cells were incubated with 3 μM of fura-2/AM at 37° C. for 50 min in serum-free RPMI 1640 medium under continuous stirring. 2×10^6 cells were aliquoted for each assay in Ca^2+ free Locke's solution (154 mM NaCl, 5.6 mM KCl, 1.2 mM MgCl2, 5 mM HEPES, pH 7.3, 10 mM glucose, and 0.2 mM EGTA). Fluorescence changes were measured at the dual excitation wavelength of 340 nm and 380 nm, and the calculated fluorescence ratio was translated into [Ca^2+]i.

[4] = test system: differentiated HL60 cells; assay: Arachidonic acid (AA) release in [3H]AA-labeled dHL60 cells; type: cell-based, human
Protocol: as §2
For the initial screening of the PS-SPCLs, we measured the AA release stimulating activity of each peptide pool. Cultured dHL60 cells (10^7 cells/ml) were pre-labeled with 0.5 μCi/ml of (^3H)-AA in RPMI 1640 medium containing 10% FBS for 90 min at 37° C. in a humidified incubator supplied with 95% air and 5% CO2, as described previously (Bae et al. J. Immunol. 2000. 164: 4089-4096). The labeled cells were then washed twice with serum-free RPMI 1640 and incubated in RPMI 1640 medium containing 0.1% fatty acid-free BSA for 15 min at 37° C. After discarding the medium, the cells were stimulated with various concentrations of peptide for the indicated times. Radioactivity in the medium and of collected cells was determined with a liquid scintillation counter. When investigating the effects of inhibitors, cells were preincubated with the indicated concentrations of each inhibitor or vehicle for 15 min prior to stimulation.

[5] = test system: differentiated HL60 cells; assay: [Ca2+]i increase in fura-2 loaded dHL60 cells; type: cell-based, human
Protocol: as §2, §3

[6] = test system: human neutrophils; assay: Superoxide generation (cytochrome c reduction) in human neutrophils; type: cell-based; details: 1 μM of peptide, cytochrome c reduction
Protocol: Peripheral blood leukocyte concentrates were donated by the Ulsan Red Cross Blood Center (Ulsan, Korea). PBMCs were separated on a Histopaque-1077 gradient. After two washings with HBSS without Ca^2+ and Mg^2+, the PBMCs were suspended in 10% FBS containing RPMI and incubated for 60 min at 37° C. to let the monocytes attach to the culture dish. Cells were washed 5 times with warmed RPMI medium to remove lymphocytes, and then the attached monocytes were collected, as described previously (Bae et al. J. Leukoc. Biol. 1999. 65: 241-248). Human neutrophils were isolated according to standard procedures; i.e., dextran sedimentation, hypotonic lysis of erythrocytes, and using a medium lymphocyte separation gradient, as described previously (Seo et al. J. Immunol. 1997. 158: 1895-1901). Isolated human leukocytes were then used promptly.
We determined superoxide anion generation by measuring cytochrome c reduction using a microtiter 96 well plate ELISA reader (Bio-Tekinstruments, EL312e, Winooski, Vt.) as described previously (Bae et al. Blood. 2001. 97: 2854-2862). Human neutrophils (1×10^6 cells/100 μl of RPMI 1640 medium per well of a 96-well plate) were preincubated with 50 μM of cytochrome c at 37° C. for 1 min and then incubated with the indicated peptide concentrations. Superoxide generation was determined from change in light absorption at 550 nm over 5 minutes at 1 min intervals.

[7] = biological target: T2, FPR (Homo sapiens, UniProt P21462); assay: [Ca2+]i increase in FPR-expressing RBL-2H3 cells; type: cell-based; details: data not shown
T2 construct: expressed in transfected cells; host or cells: RBL-2H3
T2 sequence (P21462 1-350): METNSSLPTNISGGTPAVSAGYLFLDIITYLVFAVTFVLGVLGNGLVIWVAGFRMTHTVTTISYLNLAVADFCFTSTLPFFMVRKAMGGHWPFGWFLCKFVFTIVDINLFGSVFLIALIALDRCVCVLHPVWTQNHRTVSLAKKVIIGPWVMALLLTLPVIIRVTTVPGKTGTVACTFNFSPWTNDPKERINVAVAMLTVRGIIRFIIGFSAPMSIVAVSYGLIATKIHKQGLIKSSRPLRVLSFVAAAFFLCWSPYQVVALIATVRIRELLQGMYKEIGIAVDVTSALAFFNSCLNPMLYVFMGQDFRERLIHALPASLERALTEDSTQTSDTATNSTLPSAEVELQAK
Protocol: as §2, §3

[8] = test system: undifferentiated HL60 cells; assay: [Ca2+]i increase in undifferentiated HL60 cells; type: cell-based, human
Protocol: as §2, §3

[9] = test system: ERK; assay: ERK phosphorylation in dHL60 cells (anti-phospho-ERK immunoblot); type: cell-based, human
Protocol: Each sample (30 μg of protein) was subjected to 8% SDS-PAGE, and phosphorylated ERK was quantified by immunoblot analysis with anti-phospho-ERK antibody. The results shown are from a single experiment representative of at least three independent experiments.
Extracellular signal regulated protein kinase (ERK) is a well-known intracellular enzyme that mediates diverse cellular responses (Sugden et al. Cell Signal. 1997. 9: 337-351). […] To compare the intracellular signaling involving these 4 peptides, dHL60 cells were pretreated either with LY294002 (50 μM), GF109203X (5 μM), or PD98059 (50 μM) or left untreated as a control. After being incubated for the indicated periods (15 minutes for LY294002 and GF109203X, 60 minutes for PD98059), the cells were stimulated with 1 μM of each peptide for 5 minutes.

| Substance | Cellular chemotaxis in neutrophils (in words) [1] | Cellular chemotaxis in human monocytes (in words) [2] | [Ca^2+]i increase in FPRL1-expressing RBL-2H3 cells [3] | AA release stimulating activity (in words) ([4]; dHL60 cells, 10 μM) | Effect of cPLA2-specific inhibitors AACOCF3 and MAFP on peptide-induced AA release ([4]; dHL60 cells, inhibitor pretreatment 15 min, 1 μM peptide) | Folds of increase (% of total), arachidonic acid release ([4]; differentiated HL60 cells, 10 μM of peptide) [folds] | Concentration of maximal activity, [Ca^2+]i increase ([5]; dHL60 cells, data not shown) | [Ca^2+]i ([5]; differentiated HL60 cells, fura-2, 1 μM of peptide) [nM] | Superoxide production [6] [nmole/10^6 cells] | [Ca^2+]i in FPR-expressing RBL-2H3 cells / ligand for FPR [7] | [Ca^2+]i increase in undifferentiated HL60 cells ([8]; peptides 10 μM (FIG. 8)) | Effect of PTX on peptide-stimulated calcium signaling ([8]; undifferentiated HL60 cells, data not shown) | Phosphorylation level of ERK ([9]; dHL60 cells (FIG. 9)) | Effect of GF109203X (PKC) on peptide-induced ERK phosphorylation ([9]; dHL60 cells, GF109203X (5 μM) 15 minutes, 1 μM peptide 5 minutes) | Effect of LY294002 (PI3K) on peptide-induced ERK phosphorylation ([9]; dHL60 cells, LY294002 (50 μM) 15 minutes, 1 μM peptide 5 minutes) | Effect of PD98059 (MEK) on peptide-induced ERK phosphorylation ([9]; dHL60 cells, PD98059 (50 μM) 60 minutes, 1 μM peptide 5 minutes) | Time of maximal ERK activation after stimulation ([9]; dHL60 cells, data not shown) [min] |
| --- | --- | --- | --- | --- | --- | --- | --- | --- | --- | --- | --- | --- | --- | --- | --- | --- | --- |
| LFMYHP [reference compound] | did not induce | did not induce | not to be able to induce calcium increase | – | – | – | – | – | – | – | – | – | – | – | – | – | – |
| RKYYYM-NH2 [Peptide P18] | – | – | induced calcium increase | most potent | blocked | 2.61 ± 0.295 | approximately 3 μM | 150 ± 14.5 | 28.4 ± 3.21 | not for FPR | dramatically induced | partially inhibited | dramatic increase | completely blocked | not by LY294002 | partially blocked | 5 |
